ChEMBL document CHEMBL4765358, “Discovery of highly potent and selective antiparasitic new oxadiazole and hydroxy-oxindole small molecule hybrids” (Eur J Med Chem, 2020)

What was measured:
[1] = Cytotoxicity against human HepG2 cells assessed as reduction in cell viability incubated for 120 hrs by MTS assay; format: cell-based
[2] = Cytotoxicity against human HFF-1 cells assessed as reduction in cell viability incubated for 120 hrs by MTS assay; format: cell-based
Trypanosoma cruzi [3] = assay: Antitrypanosomal activity against Trypanosoma cruzi (MHOM/CH/00/Tulahuen C2, lacZ) amastigotes infected in HFF-1 cells assessed as reduction in parasite growth incubated for 120 hrs by CPRG/Igepal substrate based photometric method; format: functional, organism-based; settings: MHOM/CH/00/Tulahuen C2, HFF-1, 120 h
Leishmania infantum = assay: Antileishmanial activity against Leishmania infantum MHOM/MA/67/ITMAP-263 infected in THP1 cells assessed as reduction in parasite growth incubated for 120 hrs by Giemsa staining based inverted microscopic analysis; format: functional, organism-based; settings: MHOM/MA/67/ITMAP-263, THP-1, 120 h
Trypanosoma cruzi [4] = assay: Antitrypanosomal activity against Trypanosoma cruzi (MHOM/CH/00/Tulahuen C2, lacZ) amastigotes infected in HFF-1 cells assessed as reduction in parasite growth at 75 uM incubated for 120 hrs by CPRG/Igepal substrate based photometric method relative to control; format: functional; settings: MHOM/CH/00/Tulahuen C2, HFF-1
Trypanosoma cruzi [5] = assay: Antitrypanosomal activity against Trypanosoma cruzi (MHOM/CH/00/Tulahuen C2, lacZ) amastigotes infected in HFF-1 cells assessed as reduction in parasite growth at 300 uM incubated for 120 hrs by CPRG/Igepal substrate based photometric method relative to control; format: functional; settings: MHOM/CH/00/Tulahuen C2, HFF-1
Trypanosoma cruzi [6] = assay: Antitrypanosomal activity against Trypanosoma cruzi (MHOM/CH/00/Tulahuen C2, lacZ) amastigotes infected in HFF-1 cells assessed as reduction in parasite growth at 150 uM incubated for 120 hrs by CPRG/Igepal substrate based photometric method relative to control; format: functional; settings: MHOM/CH/00/Tulahuen C2, HFF-1

| Structure (SMILES) | CC50 at 120 h [1] [µM] | CC50 at 120 h [2] [µM] | IC50 (Trypanosoma cruzi [3]) [µM] | IC50 (Leishmania infantum) [µM] | inhibition at 75 µM (Trypanosoma cruzi [4]) [%] | inhibition at 300 µM (Trypanosoma cruzi [5]) [%] | inhibition at 150 µM (Trypanosoma cruzi [6]) [%] |
| --- | --- | --- | --- | --- | --- | --- | --- |
| C=C(c1nc(-c2ccc(OC)cc2)no1)C1(O)C(=O)N(CC)c2ccc(OC)cc21 (stereo not given) | 13.6 | 54.5 | > 64 | 22 | – | – | – |
| CCN1C(=O)C2(OCC=C2c2nc(-c3ccccc3)no2)c2ccccc21 (stereo not given) | 60.4 | 20.6 | 12.1 | 11.7 | – | – | – |
| CCCCCCCCCCCCCCCCOP(=O)([O-])OCC[N+](C)(C)C [MILTEFOSINE] | – | – | – | 2.3 | – | – | – |
| C=C(c1nc(-c2ccccc2)no1)C1(O)C(=O)N(CC)c2ccc(C)cc21 (stereo not given) | 26.7 | > 64 | 16.6 | 6.01 | – | – | – |
| C=C(c1nc(-c2ccccc2)no1)C(O)c1ccc(S(C)(=O)=O)cc1 (stereo not given) | 28.7 | > 64 | 64.4 | 8.47 | – | – | – |
| C=C(c1nc(-c2ccccc2)no1)C(O)/C=C/c1ccccc1 (stereo not given) | 30.3 | > 64 | 55.7 | 20.6 | – | – | – |
| C=C(c1nc(-c2ccccc2)no1)C1(O)C(=O)N(Cc2ccccc2)c2ccccc21 (stereo not given) | 19.2 | > 64 | 10.6 | 5.65 | – | – | – |
| C=C(c1nc(-c2ccccc2)no1)C1(O)C(=O)N(CC)c2ccc(OC)cc21 (stereo not given) | 13.5 | > 64 | > 100 | 7.29 | – | – | – |
| C=C(c1nc(-c2ccccc2)no1)C(O)c1ccc(C#N)cc1 (stereo not given) | 32 | > 64 | > 100 | 21.7 | – | – | – |
| C=C(c1nc(-c2ccccc2)no1)C(O)CCCC (stereo not given) | > 64 | > 64 | 19.3 | 35.9 | – | – | – |
| C=C(c1nc(-c2ccccc2)no1)C(O)c1ccc(Cl)c(F)c1 (stereo not given) | 27.8 | > 64 | 27 | 18.9 | – | – | – |
| C=C(c1nc(-c2ccccc2)no1)C(O)c1ccccn1 (stereo not given) | 58.6 | 30.1 | > 100 | 17.9 | – | – | – |
| C=C(c1nc(-c2ccccc2)no1)C1(O)C(=O)N(CC)c2c(Br)cccc21 (stereo not given) | 22.8 | 21.5 | > 100 | 10.4 | – | – | – |
| C=C(c1nc(-c2ccc(OC)cc2)no1)C(O)c1ccccc1[N+](=O)[O-] (stereo not given) | 10.6 | 42.2 | > 100 | 2.38 | – | – | – |
| C=C(c1nc(-c2ccc([N+](=O)[O-])cc2)no1)C1(O)C(=O)N(CC)c2ccccc21 (stereo not given) | 10.9 | – | – | 3.33 | – | – | – |
| C=C(c1nc(-c2ccccc2)no1)C(O)c1ccc(Br)cc1 (stereo not given) | 41.1 | > 64 | 36.5 | 43.9 | – | – | – |
| C=C(c1nc(-c2ccccc2)no1)C1(O)C(=O)N(CC)c2c(Cl)cc(Cl)cc21 (stereo not given) | 6.77 | > 64 | > 100 | 4.1 | – | – | – |
| C=C(c1nc(-c2ccccc2)no1)C1(O)C(=O)N(c2ccccc2)c2ccccc21 (stereo not given) | 14.1 | 27.9 | 16.2 | 8.17 | – | – | – |
| C=C(c1nc(-c2ccccc2)no1)C(O)c1cc(F)cc(F)c1 (stereo not given) | 7.92 | > 64 | > 100 | 5.12 | – | – | – |
| C=C(c1nc(-c2ccccc2)no1)C(O)c1ccc(OC)cc1 (stereo not given) | 33.6 | > 64 | 81.3 | 18 | – | – | – |
| C=C(c1nc(-c2ccc(OC)cc2)no1)C1(O)C(=O)N(CC)c2ccc([N+](=O)[O-])cc21 (stereo not given) | 13.6 | > 64 | > 64 | 25.9 | – | – | – |
| C=C(c1nc(-c2ccc([N+](=O)[O-])cc2)no1)C1(O)C(=O)N(CC)c2ccc(OC)cc21 (stereo not given) | 5.83 | 43.6 | > 64 | 12 | – | – | – |
| O=C(Cn1ccnc1[N+](=O)[O-])NCc1ccccc1 [BENZNIDAZOLE] | – | – | 5.6 | – | 85.5 | 100 | 92.8 |
| C=C(c1nc(-c2ccccc2)no1)C(O)c1ccc([N+](=O)[O-])cc1 (stereo not given) | 14.2 | > 64 | 7.8 | 10.4 | – | – | – |
| C=C(c1nc(-c2ccccc2)no1)C(O)c1ccccc1Cl (stereo not given) | 59.2 | > 64 | 25.7 | 17.6 | – | – | – |
| C=C(c1nc(-c2ccccc2)no1)C1(O)C(=O)N(CC)c2ccc(F)cc21 (stereo not given) | 9.37 | > 64 | 14.8 | 3.51 | – | – | – |
| C=C(c1nc(-c2ccc(OC)cc2)no1)C(O)c1ccccc1 (stereo not given) | 39.6 | 55.1 | > 100 | 11.5 | – | – | – |

| Structure (SMILES) | CC50 at 120 h [1] [µM] | CC50 at 120 h [2] [µM] | IC50 (Trypanosoma cruzi [3]) [µM] | IC50 (Leishmania infantum) [µM] | inhibition at 75 µM (Trypanosoma cruzi [4]) [%] | inhibition at 300 µM (Trypanosoma cruzi [5]) [%] | inhibition at 150 µM (Trypanosoma cruzi [6]) [%] |
| --- | --- | --- | --- | --- | --- | --- | --- |
| C=C(c1nc(-c2ccc(OC)cc2)no1)C(O)c1ccccc1C(F)(F)F (stereo not given) | > 64 | > 64 | 8.8 | 8.55 | – | – | – |
| C=C(c1nc(-c2ccccc2)no1)C(O)c1cccc(F)c1 (stereo not given) | 14.1 | > 64 | > 100 | 7.29 | – | – | – |
| C=C(c1nc(-c2ccc(OC)cc2)no1)C1(O)C(=O)N(CC)c2ccccc21 (stereo not given) | 26.9 | > 64 | > 64 | 2.85 | – | – | – |
| C=C(c1nc(-c2cc(OC)c(OC)c(OC)c2)no1)C(O)c1ccccc1 (stereo not given) | 27.4 | > 64 | > 100 | 12 | – | – | – |
| COc1cccc2c1C(=O)c1c(O)c3c(c(O)c1C2=O)C[C@@](O)(C(=O)CO)C[C@@H]3O[C@H]1C[C@H](N)[C@H](O)[C@H](C)O1 [DOXORUBICIN] | 0.77 | 0.53 | – | – | – | – | – |
| C=Cc1nc(-c2ccc(OC)cc2)no1 | 58 | > 64 | 15.6 | 25.2 | – | – | – |
| C=C(c1nc(-c2ccccc2)no1)C(O)c1ccccc1 (stereo not given) | 27.2 | > 64 | 8.2 | 9.81 | – | – | – |
| CCN1C(=O)C2(OCC=C2c2nc(-c3ccccc3)no2)c2cccc(Br)c21 (stereo not given) | 58.4 | 34.2 | 26.7 | 6.41 | – | – | – |
| C=Cc1nc(-c2ccccc2)no1 | > 64 | > 64 | 37.2 | > 64 | – | – | – |
| C=CCOC1(C(=C)c2nc(-c3ccccc3)no2)C(=O)N(CC)c2ccccc21 (stereo not given) | > 64 | > 64 | 12 | 10.7 | – | – | – |
| C=C(c1nc(-c2ccc(Cl)cc2)no1)C1(O)C(=O)N(CC)c2ccc(OC)cc21 (stereo not given) | 11.5 | 40.7 | 28.4 | 5.09 | – | – | – |
| C=Cc1nc(-c2ccc([N+](=O)[O-])cc2)no1 | 26.9 | > 64 | > 64 | 12.2 | – | – | – |
| C=C(c1nc(-c2ccccc2)no1)C1(O)C(=O)N(CC)c2ccc(OC(F)(F)F)cc21 (stereo not given) | 10.4 | > 64 | > 100 | 11.1 | – | – | – |
| C=C(c1nc(-c2ccccc2)no1)C(O)c1cc2c(cc1Br)OCO2 (stereo not given) | 58.5 | > 64 | 17.6 | 8.93 | – | – | – |
| C=C(c1nc(-c2ccc(OC)cc2)no1)C(O)c1ccc(C#N)cc1 (stereo not given) | 13.6 | > 64 | > 100 | 3.89 | – | – | – |
| C=C(c1nc(-c2ccccc2)no1)C(O)c1ccc(Cl)cc1 (stereo not given) | 10.1 | > 64 | 57.5 | 6.92 | – | – | – |
| C=C(c1nc(-c2ccc(Cl)cc2)no1)C1(O)C(=O)N(CC)c2ccccc21 (stereo not given) | 13.8 | > 64 | 23.6 | 4.01 | – | – | – |
| C=C(c1nc(-c2ccc([N+](=O)[O-])cc2)no1)C(O)c1ccccc1 (stereo not given) | 27.1 | > 64 | > 64 | 37.5 | – | – | – |
| C=C(c1nc(-c2ccc(Cl)cc2)no1)C1(O)C(=O)N(CC)c2ccc([N+](=O)[O-])cc21 (stereo not given) | 10.4 | > 64 | > 64 | 6.48 | – | – | – |
| C=C(c1nc(-c2ccccc2)no1)C(O)c1ccccc1[N+](=O)[O-] (stereo not given) | 14 | > 64 | 58.4 | 10.3 | – | – | – |
| C=C(c1nc(-c2ccc([N+](=O)[O-])cc2)no1)C1(O)C(=O)N(CC)c2ccc([N+](=O)[O-])cc21 (stereo not given) | 7.12 | > 64 | > 64 | 7.36 | – | – | – |
| C=C(c1nc(-c2ccccc2)no1)C1(O)C(=O)N(CC)c2ccc(Cl)cc21 (stereo not given) | 6.78 | > 64 | > 100 | 2.5 | – | – | – |
| C=C(c1nc(-c2ccccc2)no1)C1(O)C(=O)N(CC)c2c(Cl)cccc21 (stereo not given) | 13.5 | 62.1 | > 100 | 4.85 | – | – | – |
| C=C(c1nc(-c2ccc([N+](=O)[O-])cc2)no1)C(O)c1nccs1 (stereo not given) | > 64 | > 64 | 37.1 | > 64 | – | – | – |
| C=C(c1nc(-c2ccccc2)no1)C1(O)C(=O)N(C)c2ccccc21 (stereo not given) | 6.73 | 53.8 | > 64 | 51.4 | – | – | – |
| C=C(c1nc(-c2ccc([N+](=O)[O-])cc2)no1)C(O)c1cc(OC)c(OC)c(OC)c1 (stereo not given) | 57.3 | > 64 | > 64 | 52.6 | – | – | – |
